Columns and labels:
ALOMY = test: Pre-emergence herbicidal action; format: in vivo, Alopecurus myosuroides
Excerpt: (§1) Seeds of monocotyledonous and dicotyledonous weed plants and crop plants are laid out in sandy loam soil in wood-fibre pots and covered with soil. The compounds of the invention, formulated in the form of wettable powders (WP) or as emulsion concentrates (EC), are then applied to the surface of the covering soil in the form of an aqueous suspension or emulsion at a water application rate equivalent to 600 to 800 l/ha, with addition of 0.2% wetting agent. After the treatment, the pots are placed in a greenhouse and kept under good growth conditions for the trial plants. The damage to the test plants is scored visually after a test period of 3 weeks by comparison with untreated controls (herbicidal activity in percent (%): 100% activity=the plants have died, 0% activity=like control plants). […] The tables below illustrate, in an illustrative manner, the post-emergence herbicidal action of the compounds of the invention, the herbicidal activity being stated in percent. In the experiments that follow, the herbicidal action of the compounds of the invention and that of the corresponding known racemic compounds closest from WO2012126932 and WO2018202535 were compared under the above-specified conditions by the pre-emergence and post-emergence method. The example numbers given in the tables relate to the compounds disclosed in the respective documents.

AMARE [1] = test: Pre-emergence herbicidal action; format: in vivo, Amaranthus retroflexus; details: scored after 3 weeks
Excerpt: as §1, with “percent.” for “percent. In the experiments that follow, the herbicidal action of the compounds of the invention and that of the corresponding known racemic compounds closest from WO2012126932 and WO2018202535 were compared under the above-specified conditions by the pre-emergence and post-emergence method. The example numbers given in the tables relate to the compounds disclosed in the respective documents.”

AVEFA = test: Pre-emergence herbicidal action; format: in vivo, Avena fatua
Excerpt: as §1

ECHCG [2] = test: Pre-emergence herbicidal action; format: in vivo, Echinochloa crus-galli; details: scored after 3 weeks
Excerpt: as §1, with “percent.” for “percent. In the experiments that follow, the herbicidal action of the compounds of the invention and that of the corresponding known racemic compounds closest from WO2012126932 and WO2018202535 were compared under the above-specified conditions by the pre-emergence and post-emergence method. The example numbers given in the tables relate to the compounds disclosed in the respective documents.”

MATIN [3] = test: Pre-emergence herbicidal action; format: in vivo, Matricaria inodora; details: for Pre-emergence action against MATIN: scored after 3 weeks
Excerpt: as §1

PHBPU [4] = test: Pre-emergence herbicidal action; format: in vivo, Pharbitis purpurea; details: 80 g/ha, scored after 3 weeks
Excerpt: as §1, with “percent.” for “percent. In the experiments that follow, the herbicidal action of the compounds of the invention and that of the corresponding known racemic compounds closest from WO2012126932 and WO2018202535 were compared under the above-specified conditions by the pre-emergence and post-emergence method. The example numbers given in the tables relate to the compounds disclosed in the respective documents.”

POLCO = test: Pre-emergence herbicidal action; format: in vivo, Polygonum convolvulus; details: 320 g a.i./ha, comparative experiment
Excerpt: as §1

SETVI [5] = test: Pre-emergence herbicidal action; format: in vivo, Setaria viridis; details: for Pre-emergence action against SETVI: scored after 3 weeks
Excerpt: as §1

STEME [6] = test: Pre-emergence herbicidal action; format: in vivo, Stellaria media; details: comparative experiment
Excerpt: as §1

VERPE [7] = test: Pre-emergence herbicidal action; format: in vivo, Veronica persica; details: for Herbicidal action against VERPE: comparative experiment; for Pre-emergence action against VERPE: scored after 3 weeks
Excerpt: as §1

VIOTR [8] = test: Pre-emergence herbicidal action; format: in vivo, Viola tricolor; details: 80 g/ha, scored after 3 weeks
Excerpt: as §1, with “percent.” for “percent. In the experiments that follow, the herbicidal action of the compounds of the invention and that of the corresponding known racemic compounds closest from WO2012126932 and WO2018202535 were compared under the above-specified conditions by the pre-emergence and post-emergence method. The example numbers given in the tables relate to the compounds disclosed in the respective documents.”

CYPES [9] = test: Pre-emergence herbicidal action; format: in vivo, Cyperus esculentus; details: 20 g a.i./ha, comparative experiment
Excerpt: as §1

ZEAMX = test: Pre-emergence damage to crop plants; format: in vivo, Zea mays; details: 320 g a.i./ha, comparative experiment
Excerpt: as §1

AMARE [10] = test: Post-emergence herbicidal action; format: in vivo, Amaranthus retroflexus; details: assessed after about 3 weeks
Description: (§2) Seeds of monocotyledonous and dicotyledonous weed and crop plants are laid out in sandy loam soil in wood-fibre pots, covered with soil and cultivated in a greenhouse under good growth conditions. 2 to 3 weeks after sowing, the test plants are treated at the one-leaf stage. The compounds of the invention, formulated in the form of wettable powders (WP) or as emulsion concentrates (EC), are then sprayed onto the green parts of the plants in the form of an aqueous suspension or emulsion at a water application rate equating to 600 to 800 l/ha, with addition of 0.2% wetting agent. After the test plants have been left to stand in the greenhouse under optimal growth conditions for about 3 weeks, the action of the preparations is assessed visually in comparison to untreated controls (herbicidal action in percent (%): 100% activity=the plants have died, 0% activity=like control plants). […] The tables below illustrate, in an illustrative manner, the post-emergence herbicidal action of the compounds of the invention, the herbicidal activity being stated in percent.

ECHCG [11] = test: Post-emergence herbicidal action; format: in vivo, Echinochloa crus-galli; details: assessed after about 3 weeks
Description: as §2, with “percent. In the experiments that follow, the herbicidal action of the compounds of the invention and that of the corresponding known racemic compounds closest from WO2012126932 and WO2018202535 were compared under the above-specified conditions by the pre-emergence and post-emergence method. The example numbers given in the tables relate to the compounds disclosed in the respective documents.” for “percent.”

MATIN [12] = test: Post-emergence herbicidal action; format: in vivo, Matricaria inodora; details: assessed after about 3 weeks
Description: as §2

PHBPU [13] = test: Post-emergence herbicidal action; format: in vivo, Pharbitis purpurea; details: 20 g/ha, assessed after about 3 weeks
Description: as §2

SETVI [14] = test: Post-emergence herbicidal action; format: in vivo, Setaria viridis; details: for Post-emergence action against SETVI: assessed after about 3 weeks
Description: as §2, with “percent. In the experiments that follow, the herbicidal action of the compounds of the invention and that of the corresponding known racemic compounds closest from WO2012126932 and WO2018202535 were compared under the above-specified conditions by the pre-emergence and post-emergence method. The example numbers given in the tables relate to the compounds disclosed in the respective documents.” for “percent.”

STEME [15] = test: Post-emergence herbicidal action; format: in vivo, Stellaria media; details: 5 g a.i./ha, comparative experiment
Description: as §2, with “percent. In the experiments that follow, the herbicidal action of the compounds of the invention and that of the corresponding known racemic compounds closest from WO2012126932 and WO2018202535 were compared under the above-specified conditions by the pre-emergence and post-emergence method. The example numbers given in the tables relate to the compounds disclosed in the respective documents.” for “percent.”

VERPE [16] = test: Post-emergence herbicidal action; format: in vivo, Veronica persica
Description: as §2, with “percent. In the experiments that follow, the herbicidal action of the compounds of the invention and that of the corresponding known racemic compounds closest from WO2012126932 and WO2018202535 were compared under the above-specified conditions by the pre-emergence and post-emergence method. The example numbers given in the tables relate to the compounds disclosed in the respective documents.” for “percent.”

VIOTR [17] = test: Post-emergence herbicidal action; format: in vivo, Viola tricolor; details: assessed after about 3 weeks
Description: as §2, with “percent. In the experiments that follow, the herbicidal action of the compounds of the invention and that of the corresponding known racemic compounds closest from WO2012126932 and WO2018202535 were compared under the above-specified conditions by the pre-emergence and post-emergence method. The example numbers given in the tables relate to the compounds disclosed in the respective documents.” for “percent.”

CYPES [18] = test: Post-emergence herbicidal action; format: in vivo, Cyperus esculentus; details: 20 g a.i./ha, comparative experiment
Description: as §2, with “percent. In the experiments that follow, the herbicidal action of the compounds of the invention and that of the corresponding known racemic compounds closest from WO2012126932 and WO2018202535 were compared under the above-specified conditions by the pre-emergence and post-emergence method. […]” for “percent.”

[19] = 20 g a.i./ha, comparative experiment
[20] = 5 g a.i./ha, comparative experiment

## Cc1nnc(NC(=O)c2ccc(C(F)(F)F)c([S+](C)[O-])c2Cl)o1 (stereo in doubt) [Example I-5, 2-chloro-N-(5-methyl-1,3,4-oxadiazol-2-yl)-3-[(S)-methylsulfinyl]-4-(trifluoromethyl)benzamide]
ALOMY; [19]
  Herbicidal action against ALOMY: 60%
ALOMY; 80 g/ha, scored after 3 weeks
  Pre-emergence action against ALOMY: 80%
AMARE [1]; 20 g/ha
  Pre-emergence action against AMARE: 90%
AMARE [1]; 80 g/ha
  Pre-emergence action against AMARE: 100%
AVEFA; [19]
  Herbicidal action against AVEFA: 90%
AVEFA; 80 g/ha, scored after 3 weeks
  Pre-emergence action against AVEFA: 80%
ECHCG [2]; 20 g/ha
  Pre-emergence action against ECHCG: 100%
ECHCG [2]; 80 g/ha
  Pre-emergence action against ECHCG: 100%
MATIN [3]; [19]
  Herbicidal action against MATIN: 90%
MATIN [3]; 20 g/ha
  Pre-emergence action against MATIN: 80%
MATIN [3]; 80 g/ha
  Pre-emergence action against MATIN: 100%
PHBPU [4]
  Pre-emergence action against PHBPU: 100%
POLCO
  Herbicidal action against POLCO: 80%
SETVI [5]; 5 g/ha
  Pre-emergence action against SETVI: 80%
SETVI [5]; [19]
  Herbicidal action against SETVI: 100%
SETVI [5]; 20 g/ha
  Pre-emergence action against SETVI: 100%
SETVI [5]; 80 g/ha
  Pre-emergence action against SETVI: 100%
STEME [6]; 20 g a.i./ha
  Herbicidal action against STEME: 100%
STEME [6]; 80 g a.i./ha
  Herbicidal action against STEME: 100%
STEME [6]; 320 g a.i./ha
  Herbicidal action against STEME: 100%
VERPE [7]; 20 g a.i./ha
  Herbicidal action against VERPE: 30%
VERPE [7]; 20 g/ha
  Pre-emergence action against VERPE: 80%
VERPE [7]; 80 g a.i./ha
  Herbicidal action against VERPE: 100%
VERPE [7]; 80 g/ha
  Pre-emergence action against VERPE: 100%
VIOTR [8]
  Pre-emergence action against VIOTR: 100%
CYPES [9]
  Herbicidal action against CYPES: 90%
ZEAMX
  Herbicidal action against ZEAMX: 40%
AMARE [10]; 5 g/ha
  Post-emergence action against AMARE: 100%
AMARE [10]; 20 g/ha
  Post-emergence action against AMARE: 100%
ECHCG [11]; 5 g/ha
  Post-emergence action against ECHCG: 90%
ECHCG [11]; 20 g/ha
  Post-emergence action against ECHCG: 100%
MATIN [12]; 5 g/ha
  Post-emergence action against MATIN: 80%
MATIN [12]; 20 g/ha
  Post-emergence action against MATIN: 90%
PHBPU [13]
  Post-emergence action against PHBPU: 90%
SETVI [14]; [20]
  Herbicidal action against SETVI: 100%
SETVI [14]; 5 g/ha
  Post-emergence action against SETVI: 80%
SETVI [14]; 20 g/ha
  Post-emergence action against SETVI: 100%
STEME [15]
  Herbicidal action against STEME: 80%
VERPE [16]; [20]
  Herbicidal action against VERPE: 40%
VERPE [16]; 20 g/ha, assessed after about 3 weeks
  Post-emergence action against VERPE: 90%
VIOTR [17]; 5 g/ha
  Post-emergence action against VIOTR: 100%
VIOTR [17]; 20 g/ha
  Post-emergence action against VIOTR: 100%
CYPES [18]
  Herbicidal action against CYPES: 80%

Reference: US20240174624A1, “CHIRAL N-(1,3,4-OXADIAZOLE-2-YL)PHENYL CARBOXYLIC ACID AMIDES AND THEIR USE AS HERBICIDES” (Bayer Aktiengesellschaft, priority 2021, published 2024)
